Experimental data as given in ChEMBL document CHEMBL1201862, “PubChem BioAssay data set” (2004).
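Where inhibition never reached the appropriate level, the endpoint shown equals the highest concentration tested. Otherwise, values were interpolated linearly from a five-concentration, 48-hour dose response in 96-well plates. GI50 = concentration required for 50% inhibition of growth.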 Active and inactive are the calls of the source. Rule as the data show it: active = GI50 up to about 1.1 µM and inactive = higher.

Assays:
Experiment in all cases: inhibition of tumour cell growth, NCI panel, 48 h
A549 = test system: A549
SF-295 = test system: SF-295
MDA-N = test system: MDA-N
NCI-H522 = test system: NCI-H522
SK-MEL-28 = test system: SK-MEL-28
LOX IMVI = test system: LOX IMVI
A498 = test system: A498
SNB-75 = test system: SNB-75
SF-539 = test system: SF-539
U-251 = test system: U-251
MOLT-4 = test system: MOLT-4
SK-MEL-5 = test system: SK-MEL-5
COLO 205 = test system: COLO 205
CCRF-CEM = test system: CCRF-CEM
UACC-257 = test system: UACC-257
UO-31 = test system: UO-31
Hs-578T = test system: Hs-578T
PC-3 = test system: PC-3
MDA-MB-231 = test system: MDA-MB-231
MDA-MB-435 = test system: MDA-MB-435
NCI-H460 = test system: NCI-H460
IGROV-1 = test system: IGROV-1
Malme-3M = test system: Malme-3M
SW-620 = test system: SW-620
BT-549 = test system: BT-549
NCI/ADR-RES = test system: NCI/ADR-RES
RXF 393 = test system: RXF 393
HCT-15 = test system: HCT-15
SK-MEL-2 = test system: SK-MEL-2
NCI-H226 = test system: NCI-H226
M14 = test system: M14
SK-OV-3 = test system: SK-OV-3
UACC-62 = test system: UACC-62
786-0 = test system: 786-0
SF-268 = test system: SF-268
EKVX = test system: EKVX
T47D = test system: T47D
HL-60 = test system: HL-60
RPMI-8226 = test system: RPMI-8226
OVCAR-3 = test system: OVCAR-3
OVCAR-8 = test system: OVCAR-8
K562 = test system: K562
HOP-92 = test system: HOP-92
HCC 2998 = test system: HCC 2998
OVCAR-4 = test system: OVCAR-4
OVCAR-5 = test system: OVCAR-5
SR = test system: SR
DU-145 = test system: DU-145
CAKI-1 = test system: CAKI-1
SNB-19 = test system: SNB-19
KM12 = test system: KM12
HCT-116 = test system: HCT-116
MCF7 = test system: MCF7
NCI-H23 = test system: NCI-H23
ACHN = test system: ACHN
HOP-62 = test system: HOP-62
SN12C = test system: SN12C
TK-10 = test system: TK-10
HT-29 = test system: HT-29

In the case of `CC(=O)c1c2c(c3ccccc3c1O)O[C@@H]1OCC[C@H]21`, the GI50 (A549) is reported as > 100 µM (inactive), the GI50 (SF-295) is reported as > 100 µM (inactive) and the GI50 (MDA-N) is reported as > 100 µM (inactive). The GI50 (NCI-H522) was > 100 µM (inactive), the GI50 (SK-MEL-28) was > 100 µM (inactive) and the GI50 (LOX IMVI) was > 100 µM (inactive). For the same compound, the GI50 (A498) was > 100 µM (inactive), the GI50 (SNB-75) was 11.5 µM (inactive) and the GI50 (SF-539) was > 100 µM (inactive). The GI50 (U-251) was > 100 µM (inactive), the GI50 (MOLT-4) was > 100 µM (inactive) and the GI50 (SK-MEL-5) was > 100 µM (inactive). For the same compound, the GI50 (COLO 205) was > 100 µM (inactive), the GI50 (CCRF-CEM) was > 100 µM (inactive) and the GI50 (UACC-257) was > 100 µM (inactive). For the same compound, the GI50 (UO-31) was > 100 µM (inactive), the GI50 (Hs-578T) was > 100 µM (inactive) and the GI50 (PC-3) was > 100 µM (inactive). For the same compound, the GI50 (MDA-MB-231) was > 100 µM (inactive), the GI50 (MDA-MB-435) was > 100 µM (inactive) and the GI50 (NCI-H460) was > 100 µM (inactive). For the same compound, the GI50 (IGROV-1) was > 100 µM (inactive), the GI50 (Malme-3M) was > 100 µM (inactive) and the GI50 (SW-620) was > 100 µM (inactive). The GI50 (BT-549) was 48.4 µM (inactive), the GI50 (NCI/ADR-RES) was > 100 µM (inactive) and the GI50 (RXF 393) was > 100 µM (inactive). For the same compound, the GI50 (HCT-15) was over 100 µM, the GI50 (SK-MEL-2) was > 100 µM (inactive) and the GI50 (NCI-H226) was > 100 µM (inactive). The GI50 (M14) was > 100 µM (inactive), the GI50 (SK-OV-3) was > 100 µM (inactive) and the GI50 (UACC-62) was > 100 µM (inactive). The GI50 (786-0) was > 100 µM (inactive), the GI50 (SF-268) was > 100 µM (inactive) and the GI50 (EKVX) was > 100 µM (inactive). For the same compound, the GI50 (T47D) was > 100 µM (inactive), the GI50 (HL-60) was > 100 µM (inactive) and the GI50 (RPMI-8226) was 94.6 µM (inactive). The GI50 (OVCAR-3) was > 100 µM (inactive), the GI50 (OVCAR-8) was > 100 µM (inactive) and the GI50 (K562) was > 100 µM (inactive). The GI50 (HOP-92) was > 100 µM (inactive), the GI50 (HCC 2998) was > 100 µM (inactive) and the GI50 (OVCAR-4) was 53.3 µM (inactive). For the same compound, the GI50 (OVCAR-5) was > 100 µM (inactive), the GI50 (SR) was > 100 µM (inactive) and the GI50 (DU-145) was > 100 µM (inactive). For the same compound, the GI50 (CAKI-1) was > 100 µM (inactive), the GI50 (SNB-19) was > 100 µM (inactive) and the GI50 (KM12) was > 100 µM (inactive). For the same compound, the GI50 (HCT-116) was > 100 µM (inactive), the GI50 (MCF7) was 30 µM (inactive) and the GI50 (NCI-H23) was > 100 µM (inactive). The GI50 (ACHN) was > 100 µM (inactive), the GI50 (HOP-62) was > 100 µM (inactive) and the GI50 (SN12C) was > 100 µM (inactive). The GI50 (TK-10) was > 100 µM (inactive) and the GI50 (HT-29) was > 100 µM (inactive).
In the case of `OC(COc1ccc(Cl)cc1Cl)CN1CCCC1` (stereo not drawn), the GI50 (A549) is reported as > 100 µM (inactive), the GI50 (SF-295) is reported as 89.7 µM (inactive) and the GI50 (MDA-N) is reported as 56.6 µM (inactive). The GI50 (NCI-H522) was 52.8 µM (inactive), the GI50 (SK-MEL-28) was 37.7 µM (inactive) and the GI50 (LOX IMVI) was > 100 µM (inactive). The GI50 (A498) was 38.1 µM (inactive), the GI50 (SNB-75) was 50.6 µM (inactive) and the GI50 (SF-539) was > 100 µM (inactive). For the same compound, the GI50 (U-251) was > 100 µM (inactive), the GI50 (MOLT-4) was 42.6 µM (inactive) and the GI50 (SK-MEL-5) was 27.9 µM (inactive). For the same compound, the GI50 (COLO 205) was > 100 µM (inactive), the GI50 (CCRF-CEM) was 87.9 µM (inactive) and the GI50 (UACC-257) was 24.2 µM (inactive). The GI50 (UO-31) was > 100 µM (inactive), the GI50 (Hs-578T) was 58.3 µM (inactive) and the GI50 (PC-3) was > 100 µM (inactive). For the same compound, the GI50 (MDA-MB-231) was > 100 µM (inactive), the GI50 (MDA-MB-435) was 74.1 µM (inactive) and the GI50 (NCI-H460) was 91.6 µM (inactive). For the same compound, the GI50 (IGROV-1) was > 100 µM (inactive), the GI50 (Malme-3M) was 60.1 µM (inactive) and the GI50 (SW-620) was > 100 µM (inactive). The GI50 (BT-549) was 30.5 µM (inactive), the GI50 (NCI/ADR-RES) was > 100 µM (inactive) and the GI50 (RXF 393) was > 100 µM (inactive). For the same compound, the GI50 (HCT-15) was over 100 µM, the GI50 (SK-MEL-2) was > 100 µM (inactive) and the GI50 (NCI-H226) was 88.7 µM (inactive). The GI50 (M14) was 20 µM (inactive), the GI50 (SK-OV-3) was > 100 µM (inactive) and the GI50 (UACC-62) was 21.7 µM (inactive). The GI50 (786-0) was > 100 µM (inactive), the GI50 (SF-268) was > 100 µM (inactive) and the GI50 (EKVX) was 21.1 µM (inactive). The GI50 (T47D) was > 100 µM (inactive), the GI50 (HL-60) was 42.7 µM (inactive) and the GI50 (RPMI-8226) was 57 µM (inactive). For the same compound, the GI50 (OVCAR-3) was 58.9 µM (inactive), the GI50 (OVCAR-8) was > 100 µM (inactive) and the GI50 (K562) was 71.6 µM (inactive). For the same compound, the GI50 (HOP-92) was 75.9 µM (inactive), the GI50 (HCC 2998) was 32.9 µM (inactive) and the GI50 (OVCAR-4) was > 100 µM (inactive). The GI50 (OVCAR-5) was > 100 µM (inactive), the GI50 (SR) was 64.6 µM (inactive) and the GI50 (DU-145) was > 100 µM (inactive). For the same compound, the GI50 (CAKI-1) was > 100 µM (inactive), the GI50 (SNB-19) was > 100 µM (inactive) and the GI50 (KM12) was > 100 µM (inactive). The GI50 (HCT-116) was 87.3 µM (inactive), the GI50 (MCF7) was > 100 µM (inactive) and the GI50 (NCI-H23) was > 100 µM (inactive). For the same compound, the GI50 (ACHN) was > 100 µM (inactive), the GI50 (HOP-62) was > 100 µM (inactive) and the GI50 (SN12C) was > 100 µM (inactive). The GI50 (TK-10) was > 100 µM (inactive) and the GI50 (HT-29) was 24.8 µM (inactive).
